Laboratory results as given in paper PMC9769880, “Diverse Sensory Repertoire of Paralogous Chemoreceptors Tlp2, Tlp3, and Tlp4 in Campylobacter jejuni” (Microbiology Spectrum, 2022).
Where two headings read alike, the source gives them in different places.

Legend:
Tlp4 [1] = molecular target: T1, Tlp4 (Campylobacter jejuni, UniProt Q0PBP3); test: biochemical; format: binding; settings: read-out: Tlp4 Affinity
Experimental: (§1) His-tagged proteins (Tlp2, -3, and -4) were prepared as previously described ([11]) DNA segments encoding the periplasmic sensory domains (33 to 286 amino acids) of Tlp2 and (38 to 297 amino acids) of Tlp4 were amplified (see Table S7), ligated into pGEM-T Easy (Promega) and subcloned into pET-19b (Novagen) (see Table S6). Recombinant proteins were expressed in E. coli BL21(DE3) using 1 mM IPTG (isopropyl-β-D-thiogalactopyranoside) and purified using His-select-nickel chromatography as described previously ([8], [11]). The purity of the proteins was confirmed by SDS-PAGE and Western blot analysis with anti-His antibodies (Bio-Rad). Protein concentrations were determined using a NanoDrop spectrophotometer (Thermo Fisher).
(§2) Surface plasmon resonance (SPR) experiments were performed as described previously ([10], [11]) with the following modifications. Briefly, purified proteins were diluted to 0.15 μM in sodium acetate (pH 4.0) and immobilized onto an active flow cell of a CM5 sensor chip with a flow rate of 5 μL/min for 7 min of contact time using a standard amine coupling protocol. Immobilized protein levels for all three proteins ranged from 6028.3 to 9779.3 response units (RU) providing a minimum expected response maximum (RMax) between 20 and 50 RU for the small molecules tested. […] All ligands were prepared in PBS (pH 7.2) and serially diluted from 0.2 to 0.0125 mM. A 10-min dissociation period was allocated after the introduction of each analyte. SPR experiments were performed in single-cycle kinetics mode using the BIAcore S200 biosensor system (Cytiva) at 25°C in PBS (pH 7.2) at a flow rate of 30 μL/min. The equilibrium dissociation constant (KD) for each analyte was determined using BIAcore S200 Evaluation software with a report point 4 s after the injection stop to account for the bulk transfer of the small molecule against a large amount of immobilized protein (as shown in Fig. S5).

Tlp2 [2] = molecular target: T2, Tlp2 (Campylobacter jejuni, UniProt Q0PBZ3); test: biochemical; format: binding; settings: read-out: Tlp2 Affinity
T2 sequence (Q0PBZ3 entry or part of it): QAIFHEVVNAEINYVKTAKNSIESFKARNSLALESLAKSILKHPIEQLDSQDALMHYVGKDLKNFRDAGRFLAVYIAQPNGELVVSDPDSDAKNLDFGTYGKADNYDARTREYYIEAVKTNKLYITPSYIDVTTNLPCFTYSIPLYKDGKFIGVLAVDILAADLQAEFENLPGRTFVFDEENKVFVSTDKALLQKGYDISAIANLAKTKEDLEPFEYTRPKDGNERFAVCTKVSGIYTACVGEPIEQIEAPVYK
Experimental: as §1, §2

Tlp3 [3] = molecular target: T3, Tlp3 (Campylobacter jejuni, UniProt Q0P864); test: STD NMR spectroscopy of arginine in complex with Tlp3; format: binding; settings: 283K, 600.13 MHz; H3/H3′ and H5/H5′
T3 sequence (Q0P864 entry or part of it): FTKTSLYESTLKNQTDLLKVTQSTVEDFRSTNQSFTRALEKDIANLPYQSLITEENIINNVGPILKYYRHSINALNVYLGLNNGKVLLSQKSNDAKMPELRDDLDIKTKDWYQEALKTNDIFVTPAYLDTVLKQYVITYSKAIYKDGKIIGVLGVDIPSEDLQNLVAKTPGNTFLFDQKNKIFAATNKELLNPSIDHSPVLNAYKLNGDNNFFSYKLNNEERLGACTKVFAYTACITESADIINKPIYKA
Experimental: STD NMR experiments were performed as previously described in ([10]). […] A control sample was prepared in an identical manner without the addition of Tlp3. All NMR experiments were performed using 3-mm NMR tubes on a Bruker Avance 600 MHz spectrometer equipped with a 5-mm TXI probe with triple-axis gradients at 283K without sample spinning. ^1H NMR spectra were acquired with 32 scans and a 2-s relaxation delay over a spectral width of 6,000 Hz. Solvent suppression of the residual HDO peak was achieved by using a continuous low-power presaturation pulse during the relaxation delay. For all STD NMR experiments, the protein was saturated at −0.5 ppm in the aliphatic region of the spectrum and off-resonance at 33 ppm with a cascade of 40 selective Gaussian-shaped pulses of 50-ms duration (50 dB), which correlates to a strength of 190 Hz. A 100-μs delay between each soft pulse was applied, resulting in a total saturation time of ~2 s 2 K scans were acquired per sample. Data were obtained with interspersed acquisition of pseudo-two-dimensional on-resonance and off-resonance spectra in order to minimize the effects of temperature and magnet instability. On- and off-resonance spectra were processed separately, and the final STD NMR spectrum was obtained by subtracting the individual on- and off-resonance spectra, resulting in low-subtraction artifacts.

Tlp3 [4] = format: cell-based, C. jejuni 11168-O
Experimental: (§3) The biological relevance of the binding specificities of the Tlp2,3,4 cluster was assessed by examining chemotactic responses of C. jejuni 11168-O tlp2, tlp3, and tlp4 wild-type (WT) and mutant strains using a nutrient-depleted chemotaxis assay. All ligands, with the exception of lysine and cysteine, interacted with Tlp2 and Tlp4 as attractants (Table 1), showing an ~1- to ~2-log decrease (P < 0.05) in migration toward the ligand compared to the WT strain.
(§4) Chemotaxis assays—the nutrient-depleted chemotaxis assay and the modified hard agar plug assay (tHAP)—were performed as previously described ([11], [34]). The chemotactic responses of all isogenic strains were compared to that of the C. jejuni 11168-O wild-type strain to distinguish between chemoattractants and chemorepellents. For the nutrient-depleted chemotaxis and modified hard agar plug (tHAP) assays, all differences were calculated as changes on a log10 scale. Controls were provided by using nonmotile (C. jejuni 81116 flaAB) and nonchemotactic (C. jejuni NCTC 11168 cheY) mutants ([69]) and mucin as negative and positive controls ([10]).

Tlp4 [5] = molecular target: T1, Tlp4; format: binding; settings: yes/no binding
Experimental: (§5) Glycan (>400 monosaccharides or complex glycans) and small molecule arrays containing amino acids and salts were performed as described previously by Day et al. ([67]). Briefly, 1 μg of purified recombinant protein was complexed with anti-His antibody (Cell Signaling Technology) and rabbit anti-mouse/goat anti-rabbit Alexa 555-IgG (Thermo Scientific) at a molar ratio of 1:0.5:0.25 and then incubated on the array for […] in phosphate-buffered saline (PBS). The array slides were scanned at 488/520 nm and analyzed using InnoScan 1100 with MAPIX software. All arrays were performed in triplicate with a total of 12 data points for each glycan tested; the complete data set and MIRAGE (i.e., minimum information regarding a glycomics experiment) results are shown in Tables S3 and S8.
(§6) Table S8 - Supplementary glycan microarray document based on M IRAGE guidelines. D O I:
(§7) Classification Guidelines
(§8) 1. Sample: Glycan Binding Sample
(§9) Origin: Helicobacter pylori SS1; produced as a recombinant His - tagged protein in E.
(§10) The preparation of Tlp2,3, and 4 is explained in the Materials and Methods section:
(§11) Expression and purification of the periplasmic domain of Tlp2,3, and 4.
(§12) Sample Sample is a His Tagged protein containing only the periplasmic receptor domain of the modifications full length Tlp2,3, and 4transmembrane protein.
(§13) Please see Materials and Methods: Tlps 2/3/4 bind to a range of ligands, including […]
(§14) Proteins were complexed with mouse anti- his antibody, with secondary and tertiary AlexaFluor555 antibodies (rabbit anti-mouse, goat anti-rabbit) at a molar ratio of 4:2:1.
(§15) The protein/antibody complex was incubated on ice for 10 mins prior to placing on the Assay protocol array. Arrays were performed with 1 µg of complexed protein incubated on the array for 20 min. Arrays were then washed 3 times in Array PBS (PBS + 2mM MgCl2 + 2mM CaCl2) then dried by centrifugation for 3 min at 300 x g . Scanning was performed us ing an Innopsys InnoScan 1100AL and analyzed using Mapix (Innopsys). Yes/no binding was determined by six positive replicate spots in three replicate experiments. Positive […]
(§16) Glycan Glycans in this study are listed in Table S2 and is a published library in doi:
(§17) Glycans were prepared in one of two ways for printing:
(§18) Glycan 1. Glycans (with IDs in number/letter format; e.g. 1A, 4C, 7K) were sourced modifications commercially from Dextra Laboratories, Elicityl and Carbosythn and were made into glycoamines using the protocol published in Day et al 2009 (doi:
(§19) Glycan arrays: We only use glycan arrays as a yes/no binding tool. Due to this we look only at binding that is unambiguously above background vs lack of binding above background. Average background + 3x standard deviation of the background of 20 sets of 4 spots of DMF:DMSO only spots is applied to determine if binding observed is […]
(§20) Only spots with values equal to or greater than this value were considered as binding from data of any tested slide. These values are slide […]
(§21) Data Small molecule arrays: We only use amino acid arrays as a yes/no binding tool. Due interpretation to this we look only at binding that is unambiguously above background vs lack of binding above background. Average background + 3x standard deviation of the background of 6 spots of PBS + 2% glycerol only spots is applied to determine if […]
(§22) Only spots with values equal to or greater than this value were considered as binding from data of any tested slide. These values are slide dependent. […]

Tlp2 [6] = molecular target: T2, Tlp2; format: binding; settings: yes/no binding
Experimental: as §5, §6, §7, §8, §9, §10, §11, §12, §13, §14, §15, §16, §17, §18, §19, §20, §21, §22

Tlp3^LBD D169A [7] = molecular target: T4, Tlp3^LBD D169A (Campylobacter jejuni, UniProt Q0P864, D169A); settings: compared to WT Tlp3^LBD, P < 0.05
T4 sequence (Q0P864 41-290 D169A): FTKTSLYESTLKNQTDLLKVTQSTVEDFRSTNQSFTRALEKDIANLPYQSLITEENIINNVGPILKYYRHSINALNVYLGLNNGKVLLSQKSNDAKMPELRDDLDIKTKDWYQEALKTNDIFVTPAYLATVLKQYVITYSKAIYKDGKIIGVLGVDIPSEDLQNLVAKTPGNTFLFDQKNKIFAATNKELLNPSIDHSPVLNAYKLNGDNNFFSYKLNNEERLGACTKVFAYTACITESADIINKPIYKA

Tlp3 [8] = molecular target: T3, Tlp3; test: Glycan/small molecule arrays with Tlp3; settings: yes/no binding
Experimental: as §5, §6, §7, §8, §9, §10, §11, §12, §13, §14, §15, §16, §17, §18, §19, §20, §21, §22

Tlp3^LBD K149A [9] = molecular target: T5, Tlp3^LBD K149A (Campylobacter jejuni, UniProt Q0P864, K149A); settings: compared to WT Tlp3^LBD, P < 0.05
T5 sequence (Q0P864 41-290 K149A): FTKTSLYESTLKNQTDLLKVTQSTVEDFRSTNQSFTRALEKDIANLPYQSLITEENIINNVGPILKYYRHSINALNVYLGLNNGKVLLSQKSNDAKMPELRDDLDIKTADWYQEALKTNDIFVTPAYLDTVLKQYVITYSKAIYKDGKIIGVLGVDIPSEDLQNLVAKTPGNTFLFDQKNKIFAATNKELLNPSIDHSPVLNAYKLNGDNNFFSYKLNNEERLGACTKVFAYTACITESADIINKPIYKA

Tlp2 [10] = format: cell-based, C. jejuni 11168-O; settings: nutrient-depleted chemotaxis assay
Experimental: as §3, §4

Tlp4 [11] = format: cell-based, C. jejuni 11168-O; settings: nutrient-depleted chemotaxis assay
Experimental: as §3, §4

Tlp3^LBD D169A [12] = molecular target: T4, Tlp3^LBD D169A; test: biochemical
Tlp3^LBD K149A [13] = molecular target: T5, Tlp3^LBD K149A; test: biochemical
Tlp3^LBD D170A = Tlp3^LBD D170A (Campylobacter jejuni, UniProt Q0P864); test: biochemical
Chain of Tlp3^LBD D170A (Q0P864 41-290 T170A): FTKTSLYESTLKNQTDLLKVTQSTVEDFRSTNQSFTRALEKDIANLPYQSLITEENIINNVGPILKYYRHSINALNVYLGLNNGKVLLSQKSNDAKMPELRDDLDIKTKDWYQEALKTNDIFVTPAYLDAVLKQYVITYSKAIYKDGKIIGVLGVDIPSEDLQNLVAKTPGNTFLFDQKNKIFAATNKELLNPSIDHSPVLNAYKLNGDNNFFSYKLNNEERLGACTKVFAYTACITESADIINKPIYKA

Tlp3^LBD W151A [14] = molecular target: T6, Tlp3^LBD W151A (Campylobacter jejuni, UniProt Q0P864, W151A); settings: compared to WT Tlp3^LBD, P < 0.05
T6 sequence (Q0P864 41-290 W151A): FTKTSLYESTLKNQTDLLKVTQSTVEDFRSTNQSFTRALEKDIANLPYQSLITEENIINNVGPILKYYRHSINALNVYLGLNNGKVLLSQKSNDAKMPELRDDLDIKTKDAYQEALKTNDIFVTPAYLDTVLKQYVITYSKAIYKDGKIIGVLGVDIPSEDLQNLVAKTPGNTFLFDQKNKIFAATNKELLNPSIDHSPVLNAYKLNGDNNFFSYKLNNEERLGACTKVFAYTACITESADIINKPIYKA

Tlp3^LBD D196A = Tlp3^LBD D196A (Campylobacter jejuni, UniProt Q0P864, D196A); test: biochemical
Chain of Tlp3^LBD D196A (Q0P864 41-290 D196A): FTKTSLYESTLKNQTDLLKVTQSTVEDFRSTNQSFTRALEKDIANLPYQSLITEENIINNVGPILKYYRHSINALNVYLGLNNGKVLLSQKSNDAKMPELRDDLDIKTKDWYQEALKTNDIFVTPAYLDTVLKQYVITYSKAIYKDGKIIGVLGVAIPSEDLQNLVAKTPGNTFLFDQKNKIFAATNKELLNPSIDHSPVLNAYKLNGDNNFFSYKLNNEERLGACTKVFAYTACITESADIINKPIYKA

Tlp3^LBD W151A [15] = molecular target: T6, Tlp3^LBD W151A; test: biochemical
Tlp3 [16] = molecular target: T3, Tlp3; test: biochemical; format: binding
Experimental: as §1, with “The purity of the proteins was confirmed by SDS-PAGE and Western blot analysis with anti-His antibodies (Bio-Rad).” left out
Surface plasmon resonance (SPR) experiments were performed as described previously ([10], [11]) with the following modifications. […] All ligands were prepared in PBS (pH 7.2) and serially diluted from 0.2 to 0.0125 mM. A 10-min dissociation period was allocated after the introduction of each analyte. SPR experiments were performed in single-cycle kinetics mode using the BIAcore S200 biosensor system (Cytiva) at 25°C in PBS (pH 7.2) at a flow rate of 30 μL/min. The equilibrium dissociation constant (KD) for each analyte was determined using BIAcore S200 Evaluation software with a report point 4 s after the injection stop to account for the bulk transfer of the small molecule against a large amount of immobilized protein (as shown in Fig. S5).

[17] = test system: C. jejuni 11168-O tlp2, tlp3, and tlp4 mutant strains; format: cell-based; settings: positive control
[18] = SPR KD, mean ± SD, NB = no binding

T1 sequence (Q0PBP3 entry or part of it): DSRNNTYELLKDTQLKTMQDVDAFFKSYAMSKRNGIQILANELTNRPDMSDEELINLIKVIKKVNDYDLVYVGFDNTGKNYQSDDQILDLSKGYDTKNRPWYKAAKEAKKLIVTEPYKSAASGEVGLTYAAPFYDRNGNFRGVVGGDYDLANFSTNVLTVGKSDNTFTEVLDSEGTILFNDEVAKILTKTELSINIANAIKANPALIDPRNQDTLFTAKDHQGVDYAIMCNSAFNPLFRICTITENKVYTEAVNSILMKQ

Molecule: N=C(N)NCCC[C@H](N)C(=O)O [Arginine]
- Kd (Tlp4 [1]): > 200 µM
- Kd (Tlp2 [2]): > 200 µM
- saturation transfer (STD NMR) (Tlp3 [3]): Strong saturation transfer
- Tlp3 CR (chemoresponse) (Tlp3 [4]): R

Molecule: OC[C@H]1OC(O)[C@@H](O)[C@@H](O)[C@@H]1O (some centres unmarked) [Mannose]
- binding to Tlp4 on glycan/small molecule array (Tlp4 [5]): interacted
- binding to Tlp2 on glycan/small molecule array (Tlp2 [6]): interacted
- Kd (Tlp4 [1]; [18]): 7.8 ± 1 µM
- Kd (Tlp2 [2]; [18]): 12.9 ± 1.8 µM
- reduction in the affinity of Tlp3^LBD, substitution D169A (Tlp3^LBD D169A [7]): 2 fold
- binding to Tlp3 on glycan/small molecule array (Tlp3 [8]): interacted
- reduction in the affinity of Tlp3^LBD, substitution K149A (Tlp3^LBD K149A [9]): 2 fold
- chemotactic response via Tlp2 (Tlp2 [10]): attractants
- Tlp3 CR (chemoresponse) (Tlp3 [4]; chemotaxis of mutant compared to WT strain): R
- chemotactic response via Tlp3 (Tlp3 [4]; nutrient-depleted chemotaxis assay): repellents
- chemotactic response via Tlp4 (Tlp4 [11]): attractants

Molecule: Cc1ncc(C[n+]2csc(CCO)c2C)c(N)n1 [Thiamine]
- Kd (Tlp3^LBD D169A [12]): 62 ± 8.5 µM
- Kd (Tlp4 [1]): > 200 µM
- Kd (Tlp2 [2]): > 200 µM
- Kd (Tlp3^LBD K149A [13]): 53.8 ± 6.6 µM
- Kd (Tlp3^LBD D170A): 30.6 ± 7.2 µM
- reduction in the affinity/binding of Tlp3^LBD, substitution W151A (Tlp3^LBD W151A [14]): 1 fold
- Kd (Tlp3^LBD D196A): 36.8 ± 10 µM
- Kd (Tlp3^LBD W151A [15]): 73.3 ± 4.4 µM
- Kd (Tlp3 [16]): 41.4 ± 5.9 µM
- Tlp3 CR (chemoresponse) (Tlp3 [4]): R

Molecule: mucin
- migration toward control ligand in mutants [17]: not affected
